This is an account of results in patent US20260295059A1, “BROAD-SPECTRUM ANTIBIOTIC HYBRIDS FOR THE TREATMENT OF MULTI-DRUG RESISTANT INFECTIONS” (priority 2023, published 2026).

Where a SMILES comes first, the peptide text is derived from it. Bridges are numbered along the chain shown (N, C = ends). [ ]: non-standard residue; d: D form. The star is where a group is joined. ξ: configuration not given here. Decanoyl(3R-OH) = CCCCCCC[C@@H](O)CC(=O)*; Decanoyl = CCCCCCCCCC(=O)*; dDab = NCC[C@@H](N)C(=O)O; Dab = NCC[C@H](N)C(=O)O; ξDab = NCCC(N)C(=O)O

One data set deals with Gram-negative bacteria. Put plainly: Antibacterial activity against Gram-negative bacteria. Format: cell-based. The source says: (§1) Polymyxin lipopeptides can act as powerful potentiators for FDA-approved non-antibiotic drugs, by permeabilizing the Gram-negative outer membrane, allowing the non-antibiotic drug to enter the bacterial cell and reach its intracellular targets (Hussein et al. (2018) Comput. Struct. Biotechnol. J. 16:587-599; Hussein et al. (2017) Microbiol. Drug Resist. 23:640-650; Jasim et al. (2017) J. Biomed. Nanotechnol. 13:447-457; Schneider et al. (2016) ACS Infect. Dis. 2:478-488; Tran et al. (2018) Front. Pharmacol. 9:359; Tran et al. (2018) Front. Microbiol. 9:721; Schneider et al. (2017) Essays Biochem. 61:115-125; Diep et al. (2017) Antimicrob. Agents Chemother. 61; Rao et al. (2016) J. Antimicrob. Chemother. 71:3148-3156; Sharma et al. (2017) Int. J. Antimicrob. Agents 49:224-232).

For the next data set, the system named is Gram-positive bacteria. Put plainly: Antibacterial activity against Gram-positive bacteria. Format: cell-based.
Description: as §1

For data set [1], the system named is P. aeruginosa. Put plainly: Activity against challenge panel of 207 P. aeruginosa isolates (MIC50/MIC90). To be noted: Pseudomonas aeruginosa. Format: cell-based. The protocol: (§2) Dry Powder Formulation and in vivo Efficacy of UOM-001 and UOM-005 in a Lung Infection Model. […] The activity of DPI UOM-001 and comparator antibiotics was assessed against a challenge panel consisting of 207 P. aeruginosa isolates collected from different parts of the world; 105 isolates were enriched for resistance against β-lactam/β-lactamase inhibitor combinations (Table 6). […] The teixobactin-lipopeptide hybrids have a labile linker between the two antibiotic components that allows for sustained release of each component at the infection site simultaneously, thereby targeting their synergistic activity. Whereas the individual components when administered together likely display different disposition, uptake, and elimination characteristics, and therefore become diffusely distributed from each other, resulting in the loss of antibacterial synergy. […] In contrast, following intravenous administration of an identical dose, the ELF concentration of UOM-001 was below the limit of quantification (0.1 μg/mL). […] Pulmonary surfactant is a primary component of the ELF which can bind antibiotics that can impede the antibacterial activity of the drug. The binding of UOM-001 and teixobactin (5 mg/L for 4 h 37° C.) to lung surfactant or its individual components was determined by ultracentrifugation and LC-MS (FIG. 5C). The low binding of UOM-001 to lung surfactant is consistent with its good efficacy in the lung infection model. The effect of surfactant on the in vitro antibacterial activity of UOM-001 was assessed with the use of three polymyxin-resistant P. aeruginosa cystic fibrosis isolates. Beractant (Survanta™; Abbott Laboratories) served as the pulmonary surfactant. Beractant is a bovine-derived surfactant containing 25 mg/mL phospholipids. Although its composition differs slightly from that of human surfactant, it is functionally equivalent. For surfactant testing, the bacterial growth medium was supplemented with 10% beractant (=2.5 mg/mL). Since the surfactant produces turbidity, the minimum bactericidal concentration (MBC) was used to compare potency of UOM-001 in the absence or presence of surfactant. The MBCs of UOM-001 (0.125-0.5 mg/L) were not affected even when tested with the highest concentrations of surfactant (2.5 mg/mL, 10%).

The next data set has as its system PDR P. aeruginosa. The data set is described as above. Format: cell-based. To be noted: P. aeruginosa (n = 207). The protocol:
as §2

Data set [2] concerns P. aeruginosa FADDI-PA021m. Put plainly: Static time-kill study, FADDI-PA021m. Format: cell-based. To be noted: native teixobactin or polymyxin B (MICs >128 mg/L).
In data set [3] the test system is P. aeruginosa FADDI-PA021m. Put plainly: MIC against polymyxin-resistant cystic fibrosis isolate FADDI-PA021m. Format: cell-based.
The test system of the next data set is pulmonary infections. Conditions: 230 critically-ill patients, cited from earlier work.
The subject of data set [4] is P. aeruginosa. Put plainly: MIC determination, P. aeruginosa strains. Format: cell-based. Conditions: 11 PDR P. aeruginosa strains. From the text:
(§3) Agents Chemother. 61; Rao et al. (2016) J. Antimicrob. Chemother. 71:3148-3156; Sharma et al. (2017) Int. J. Antimicrob. Agents 49:224-232). Subsequently, this SAR-based design strategy has been expanded to include teixobactins conjugated via labile and non-labile linkers to the polymyxin-lipopeptides (e.g., polymyxin B nonapeptide, FADDI-002 and octapeptin C4) (Velkov et al. (2018) Cell Chem. Biol. 25:380-391 e385; Velkov et al. (2013) Future Microbiol. 8:711-724; Velkov et al. (2014) ACS Chem. Biol. 9:1172-1177; Velkov et al. (2010) J. Med. Chem 53:1898-1916), which generated potent teixobactin lipopeptide hybrids active against teixobactin-resistant PDR Gram-negative ‘superbugs’ (Table 4).

The subject of the next data set is A. baumannii. Put plainly: MIC determination, A. baumannii strains. Format: cell-based. To be noted: 4 PDR A. baumannii strains.
Description: as §3

The test system of the next data set is S. aureus. Put plainly: MIC determination, S. aureus strains. Format: cell-based. Conditions: 3 PDR S. aureus strains.
Description: as §3

Regarding `CCCCCCCCCC(=O)N[C@H](CCN)C(=O)N[C@H]1CCNC(=O)[C@H](CC(C)C)NC(=O)[C@H](CCN)NC(=O)[C@H](CCN)NC(=O)[C@H](CC(C)C)NC(=O)[C@@H](Cc2ccccc2)NC(=O)[C@H](CCN)NC1=O` [FADDI-115] (Decanoyl-[dDab][Dab][Dab][dF]L[Dab][Dab]L; lactam 2-C), in the data set with Gram-negative bacteria, the “activity against Gram-negative bacteria” value is on record as “potent activity”. Also, the “activity against Gram-positive bacteria” value in the data set with Gram-positive bacteria is “potent activity”.
The MIC50 is the lowest concentration that inhibits either 50% of growth or 50% of the strains tested, depending on the study. The term MIC90 denotes an inhibitory concentration at the 90% level, which refers to growth in some studies and to a panel of isolates in others. As for `C[C@H]1COc2c(N3CCN(C)CC3)c(F)cc3c(=O)c(C(=O)O)cn1c23` [LEVO, levofloxacin], in the data set on P. aeruginosa [1], the MIC50 is 8 µg/mL and the MIC90 is above 16 µg/mL.
As to gentamicin [GNT], in the data set on PDR P. aeruginosa, the MIC50 was determined as 8 µg/mL and the MIC90 was above 16 µg/mL.
A word on the MIC: it is the smallest concentration in the dilution series that meets the test's criterion for growth inhibition. A lower MIC goes with inhibition by little substance. On to polymyxin B, for which the killing result in [2] is listed as “no killing was observed”. The compound also had an MIC in data set [3] above 128 µg/mL.
On to `CCCCCCC[C@@H](O)CC(=O)N[C@H](CCN)C(=O)NC1CCNC(=O)[C@H](CC(C)C)NC(=O)[C@H](CCN)NC(=O)[C@H](CCN)NC(=O)[C@H](CC(C)C)NC(=O)[C@@H](Cc2ccccc2)NC(=O)[C@H](CCN)NC1=O` (stereo partly drawn) [octapeptin C4] ({Decanoyl(3R-OH)}-[dDab][ξDab][Dab][dF]L[Dab][Dab]L; lactam 2-C), for which, in the data set with Gram-negative bacteria, the “activity against Gram-negative bacteria” value is “potent activity”. The “activity against Gram-positive bacteria” value in the data set with Gram-positive bacteria is reported as “potent activity”.
Consider ceftazidime-avibactam [CAZ-AVI], for which, in the data set with PDR P. aeruginosa, the MIC50 stood at 2 µg/mL and the MIC90 came out at 8 µg/mL.
In the case of colistin, the MIC50 in the data set on PDR P. aeruginosa is 1 µg/mL. Besides, the MIC90 in the data set on PDR P. aeruginosa was found to be 1 µg/mL. Also, the “efficacy of parenteral colistin for pulmonary infections” value in the data set with pulmonary infections is “disappointing”. In addition, in the data set with pulmonary infections (parenteral, pulmonary infections), the “exposure of colistin at the infection site” value is “very limited exposure at the infection site”. Further, the “colistin MIC (PDR strains)” value in the data set with P. aeruginosa [4] was 8 to 128 µg/mL; with A. baumannii, 8 to 128 µg/mL; in the data set with S. aureus, above 128 µg/mL.
As to `NCC[C@H](O)C(=O)N[C@@H]1C[C@H](N)[C@@H](O[C@H]2O[C@H](CN)[C@@H](O)[C@H](O)[C@H]2O)[C@H](O)[C@H]1O[C@H]1O[C@H](CO)[C@@H](O)[C@H](N)[C@H]1O` [AMK, amikacin], in the data set with P. aeruginosa [1], the MIC50 turned out to be 16 µg/mL and the MIC90 is above 32 µg/mL.
For piperacillin-tazobactam [PIP-TAZ], in the data set with PDR P. aeruginosa, the MIC50 amounted to 64 µg/mL and the MIC90 was above 128 µg/mL.
As to `C[C@@H](O)[C@H]1C(=O)N2C(C(=O)O)=C(S[C@@H]3CN[C@H](C(=O)N(C)C)C3)[C@H](C)[C@H]12` [MER, meropenem], in the data set with P. aeruginosa [1], the MIC50 was 16 µg/mL and the MIC90 was above 32 µg/mL.
